The values below come from patent US8821568B2, “Implant modified with non-hydroxylated vitamin D precursors” (Numat Biomedical S.L., priority 2008, dated 2014).

Common to all, as to format: cell-based, mouse
In assay [1] the test system is MC3T3-E1 cells. The assay can be described thus: Real-time RT-PCR of osteoblast differentiation markers, coated titanium implants. The following applies: Ti implants, 48 h. How it is done:
To test the effect of the surface modification, 96-well plates were used. Ti disks were placed into the wells and treatments and UV-activation were performed over there. Cells grown onto untreated polystyrene tissue culture plastic (TCP) were added as a control for all the experiments. Cells were seeded at a density of 30,000 cells/cm^2 and they were maintained in α-MEM supplemented with 10% FCS and antibiotics. Culture media was collected after 48 hours, to test cytotoxicity and the production of the hydroxylated form of vitamin D, 25-D3. Cells were harvested after two days of culture using Trizol reagent (Roche Diagnostics, Mannheim, Germany), to analyze gene expression of several osteoblast differentiation markers and enzymes involved in vitamin D synthesis using real-time RT-PCR. On the other hand, MC3T3-E1 cells were harvested after 21 days to measure calcium content and ALP activity in the cell monolayer.
(§1) RNA was isolated from cells using a monophasic solution of phenol and guanidine thiocyanate (Trizol, Roche Diagnostics, Mannheim, Germany) according to the manufacturer's protocol. RNA was quantified at 260 nm using a Nanodrop spectrophotometer (NanoDrop Technologies, Wilmington, Del., USA).
(§2) Total RNA previously isolated was reverse-transcribed to cDNA using High Capacity RNA to cDNA kit (Applied Biosystems, Foster City, Calif.) according to the protocol of the supplier. The same amount of total RNA from each sample was converted into cDNA. Each cDNA was diluted ¼ and aliquots were stored at −20° C. until the PCR reactions were carried out.
Real-time RT-PCR was performed for two reference genes: 18S ribosomal RNA (18S rRNA), glyceraldehyde-3-phosphate dehydrogenase (GAPDH); and eleven target genes: alkaline phosphathase (ALP), Interleukin 6 (IL-6), Collagen (Coll-1), Osteocalcin (OC), Bone Morphogenetic Protein 2 (BMP-2), Osterix (Osx), Receptor activator of nuclear factor kappa-B ligand (RANKL), Osteoprogesterin (OPG) and genes involved in vitamin D synthesis such as Vitamin D3 25-hydroxylase (CYP27A1) and 25 hydroxyvitamin D3-1-alpha hydroxylase (CYP27B1). Real-time PCR were performed in the Lightcycler 480® (Roche Diagnostics, Germany). Each reaction contained 5 μl of LightCycler-FastStart DNA Master^PLUS SYBR Green I (Roche Diagnostics, Mannheim, Germany), 0.5 μM of the sense and antisense specific primers (Table 1) and 3 μl of the cDNA dilution in a final volume of 10 μl. The normal amplification program consisted of a preincubation step for denaturation of the template cDNA (10 min 95° C.), followed by 45 cycles consisting of a denaturation step (10 s 95° C.), an annealing step (10 s 60° C., except for ALP that was 10 s at 65° C., OSX with 10 s at 68° C.) and an extension step (10 s 72° C.). After each cycle, fluorescence was measured at 72° C. Every run included a negative control without cDNA template. To confirm amplification specificity, PCR products were subjected to a melting curve analysis on the LightCycler and subsequently 2% agarose/TAE gel electrophoresis, Tm and amplicon size, respectively.
To allow relative quantification after PCR, real-time efficiencies were calculated from the given slopes in the LightCycler 480 software (Roche Diagnostics, Mannheim, Germany) using serial dilutions. Relative quantification after PCR was calculated by normalizing target gene concentration in each sample by the concentration mean of the two reference genes in given sample using the Advanced relative quantification method provided by the LightCycler 480 analysis software.
In general terms: In qPCR the cycle at which signal appears reflects the starting amount.

Assay [2] has as its system MC3T3-E1 cells. The assay can be described thus: Real-time RT-PCR of vitamin D hydroxylation/degradation enzymes (CYP27A1, CYP27B1, CYP24A1), plastic wells. The following applies: TCP, 2 days. How it is done: (§3) To test the effect of the different treatments onto the plastic wells, 96-well plates made of polystyrene were used and the treatments with 7-DHC performed directly onto them. Cells grown onto untreated TCP were added as a control for all the experiments. Cells were seeded at a density of 30,000 cells/cm^2 and they were maintained in α-MEM supplemented with 10% FCS and antibiotics. Culture media was collected after 48 hours, to test cytotoxicity and the production of the hydroxylated forms of vitamin D. Cells were harvested after 2 days of culture using Trizol reagent (Roche Diagnostics, Mannheim, Germany), to analyse early gene expression response of several osteoblast differentiation markers and enzymes involved in vitamin D synthesis using real-time RT-PCR.
as §1, §2
(§4) Real-time RT-PCR was performed for two reference genes: 18S ribosomal RNA (18S rRNA), glyceraldehyde-3-phosphate dehydrogenase (GAPDH), and 11 target genes alkaline phospathase (ALP), Interleukin 6 (IL-6), Collagen (Coll-1), Osteocalcin (OC), Bone Morphogenetic Protein 2 (BMP-2), Osterix (Osx), Receptor activator of nuclear factor kappa-B ligand (RANKL), Osteoprogesterin (OPG) and genes involved in vitamin D synthesis such as Vitamin D3 25-hydroxylase (CYP27A1), 25 hydroxyvitamin D3-1-alpha hydroxylase (CYP27B1) and 1,25-dihydroxyvitamin D3 24-hydroxylase (CYP24A1).
Real-time PCR were performed in the Lightcycler 480® (Roche Diagnostics, Germany). […] After each cycle, fluorescence was measured at 72° C. […]
(§5) To allow relative quantification after PCR, real-time efficiencies were calculated from the given slopes in the LightCycler 480 software (Roche Diagnostics, Mannheim, Germany) using serial dilutions. Relative quantification after PCR was calculated by normalizing target gene concentration in each sample by the concentration mean of the two reference genes in given sample using the “advanced relative quantification method” provided by the LightCycler 480 analysis software.

Assay [3] concerns MC3T3-E1 cells. The assay can be described thus: Real-time RT-PCR of bone markers, plastic wells. The following applies: TCP, 2 days. How it is done: as §3, §1, §2, §4
Real-time PCR were performed in the Lightcycler 480® (Roche Diagnostics, Germany). Each reaction contained 5 μl of LightCycler-FastStart DNA Master^PLUS SYBR Green I (Roche Diagnostics, Mannheim, Germany), 0.5 μM of the sense and antisense specific primers (Table 1) and 3 μl of the cDNA dilution in a final volume of 10 μl. The normal amplification program consisted of a preincubation step for denaturation of the template cDNA (10 min 95° C.), followed by 45 cycles consisting of a denaturation step (10 s 95° C.), an annealing step (10 s 60° C., except for ALP that was 10 s at 65° C., OSX with 10 s at 68° C. and CYP24A1 at 58° C. 10 s) and an extension step (10 s 72° C.). After each cycle, fluorescence was measured at 72° C. Every run included a negative control without cDNA template. To confirm amplification specificity, PCR products were subjected to a melting curve analysis on the LightCycler and subsequently 2% agarose/TAE gel electrophoresis, Tm and amplicon size, respectively.
as §5

Entries after “also recorded” stand apart in the source; their conditions may differ.

In the case of `CC(C)CCC[C@@H](C)[C@H]1CC[C@H]2C3=CC=C4C[C@@H](O)CC[C@]4(C)[C@H]3CC[C@]12C` [7-DHC, 7-dehydrocholesterol], the “RANKL mRNA expression” value in the assay with MC3T3-E1 cells [1] (2×10^−2 nmols and 0.2 nmols, UV 15 minutes vs UV-untreated) was “significant decrease”. The “RANKL mRNA levels” value was “statistical significant increase” in the assay on MC3T3-E1 cells [1] (10 minutes UV-exposed, compared to ethanol); “significant decrease” in the assay with MC3T3-E1 cells [1] (30 minutes UV-exposed); “lower” in the assay on MC3T3-E1 cells [3] (some UV-untreated samples compared to their control). The “OPG mRNA levels” value in the assay on MC3T3-E1 cells [1] (30 min UV-exposed) was “decrease”. The “ALP mRNA levels” value in the assay with MC3T3-E1 cells [1] (UV irradiated vs ethanol and UV-treated groups, significant at 30 minutes) is on record as “higher ALP mRNA levels”; in the assay with MC3T3-E1 cells [3] (2×10^−3 nmols UV-treated vs same treatment non UV-irradiated), “Higher ALP mRNA levels”. In addition, the “OC mRNA levels” value in the assay with MC3T3-E1 cells [1] (UV-exposed for 15 min) is reported as “tendency to increased OC mRNA levels”. In addition, the RANKL gene expression result in the assay with MC3T3-E1 cells [1] (all UV-treated groups (2×10^−2, 0.2, 2 nmols; 15 minutes) compared to control) was “Statistical significances; also recorded: significantly reduced”. Further, the “OSX mRNA levels” value with MC3T3-E1 cells [1] (between all the groups, only significant at 10 minutes of UV exposure) was “very similar”. In addition, in the assay on MC3T3-E1 cells [1] (when exposed to UV), the “BMP-2 mRNA levels” value is listed as “No statistical differences”. Moreover, the “IL-6 mRNA levels” value in the assay on MC3T3-E1 cells [1] (when exposed to UV) was “No statistical differences”; in the assay on MC3T3-E1 cells [3] (different doses, UV-treated vs UV-untreated), “No significant differences”. The “Collagen type-1 gene expression” value in the assay on MC3T3-E1 cells [1] (with UV exposure time, significant at 15 and 30 minutes) is recorded as “trend to decrease”. The “CYP27B1 mRNA levels” value in the assay on MC3T3-E1 cells [2] (UV-irradiated, higher concentrated samples, significance was not reached) is “increase in mRNA levels”. The “CYP27A1 mRNA levels” value with MC3T3-E1 cells [2] (UV-treated doses above the lowest, vs UV-untreated corresponding doses) is “dose-response increase”. Moreover, the “Collagen type-1 mRNA levels” value in the assay with MC3T3-E1 cells [3] (0.2 nmols UV-treated vs same treatment non UV-irradiated) is on record as “increased mRNA levels”. The “Osteocalcin mRNA levels” value in the assay on MC3T3-E1 cells [3] (2 nmols UV-treated vs same treatment non UV-irradiated) was “statistical differences”. The “Bone morphogenetic protein 2 mRNA levels” value in the assay with MC3T3-E1 cells [3] (2×10^−2 nmols UV-treated vs non-irradiated) is recorded as “significantly lower levels”. Besides, the Osterix expression levels entry in the assay with MC3T3-E1 cells [3] (all UV-treated groups vs non irradiated, significant at 0.2 and 2 nmols) was “Higher expression levels”.
